The structures appear in SMILES notation. Structures can show the parent of a compound that is named as a salt.

Among the data in patent publication US7365095B2, “Chromane and chromene derivatives and uses thereof” (Wyeth, priority 2005, dated 2008) are melting point values, retold here.

With `NC[C@H]1CCc2ccc(F)c(-c3ccc(Cl)cc3Cl)c2O1` (as salt: hydrochloride), the melting point (commonly the temperature, or range, at which the solid turns liquid) lay in the range of 164 to 166 °C.
In the case of `CCNC[C@H]1CCc2cc(F)cc(-c3c(Cl)cccc3Cl)c2O1` (as salt: hydrochloride) [Compound 58, N-{[(2R)-8-(2,6-dichlorophenyl)-6-fluoro-3,4-dihydro-2H-chromen-2-yl]methyl}ethanamine hydrochloride] it was over 225 °C; in that of `NC[C@H]1C=Cc2cc(F)cc(-c3c(Cl)cccc3Cl)c2O1` (as salt: hydrochloride) [Compound 66, {[(2R)-8-(2,6-dichlorophenyl)-6-fluoro-2H-chromen-2-yl]methyl}amine hydrochloride], 153 to 155 °C; in that of `NC[C@H]1C=Cc2cc(F)cc(-c3ccccc3Cl)c2O1` (as salt: hydrochloride) [Compound 64, {[(2R)-8-(2-chlorophenyl)-6-fluoro-2H-chromen-2-yl]methyl}amine hydrochloride], 145 to 147 °C.
The same measure for `Cc1cc(Cl)ccc1-c1c(F)ccc2c1O[C@@H](CN)CC2` (as salt: hydrochloride) [Compound 72, ((2R)-8-(4-Chloro-2-methylphenyl)-7-fluorochroman-2-yl)methanamine hydrochloride]: 100 to 102 °C.
